Where a name gives a salt, the structure may show the parent alone.
How the values were obtained:
[1] = Solubility in water
[2] = physchem; details: water

baquimast
solubility in water [1]: 0.23 mg/mL

CCN(CC)C(=O)C1(c2ccccc2)CC1CN (centres unmarked) [milnacipran hydrochloride]
solubility [2]: 600 mg/mL

Source: US6709675B1, “Thixotropic formulations for filling capsules” (Pierre Fabre Medicament, priority 1998, dated 2004)
